This passage reports solubility results from patent US20230226064A1, “ORAL LIQUID FORMULATIONS OF RUXOLITINIB” (Novartis AG, priority 2020, published 2023).

A short description of the series: Solubility profile of ruxolitinib phosphate in buffer solutions at 37° C. Format: physicochemical. The source says: Development of stable and palatable oral solution formulation for ruxolitinib is challenging due to pH dependent solubility (see Table 2) of the drug substance with mainly oxidation degradation products at higher temperatures/moisture content and/or in presence of oxygen.

Broadly, the solubility is the concentration that dissolves in the medium under given conditions. For the compound `N#CC[C@H](C1CCCC1)n1cc(-c2ncnc3[nH]ccc23)cn1` [ruxolitinib phosphate], the solubility was no less than 520 µg/mL (aqueous buffer, Buffer solution pH 3.3); 350 µg/mL (aqueous buffer, Buffer solution pH 4.3); 290 µg/mL (aqueous buffer, Buffer solution pH 5.3); 150 µg/mL (aqueous buffer, Buffer solution pH 7.5); 170 µg/mL (aqueous buffer, Buffer solution pH 8.0); no less than 540 µg/mL (simulated gastric fluid, Buffer solution pH 1.0).
